No end group written: not given here.

The experiment deals with T1, angiotensin converting enzyme (Oryctolagus cuniculus, UniProt P12822).
T1 construct: The supernatant was dialyzed against the same buffer to remove low-molecular weight substances resulting in an angiotensin converting enzyme solution; tissue Sigma Co; host or cells: rabbit lung (acetone-dried preparation)
T1 sequence (P12822 34-1310): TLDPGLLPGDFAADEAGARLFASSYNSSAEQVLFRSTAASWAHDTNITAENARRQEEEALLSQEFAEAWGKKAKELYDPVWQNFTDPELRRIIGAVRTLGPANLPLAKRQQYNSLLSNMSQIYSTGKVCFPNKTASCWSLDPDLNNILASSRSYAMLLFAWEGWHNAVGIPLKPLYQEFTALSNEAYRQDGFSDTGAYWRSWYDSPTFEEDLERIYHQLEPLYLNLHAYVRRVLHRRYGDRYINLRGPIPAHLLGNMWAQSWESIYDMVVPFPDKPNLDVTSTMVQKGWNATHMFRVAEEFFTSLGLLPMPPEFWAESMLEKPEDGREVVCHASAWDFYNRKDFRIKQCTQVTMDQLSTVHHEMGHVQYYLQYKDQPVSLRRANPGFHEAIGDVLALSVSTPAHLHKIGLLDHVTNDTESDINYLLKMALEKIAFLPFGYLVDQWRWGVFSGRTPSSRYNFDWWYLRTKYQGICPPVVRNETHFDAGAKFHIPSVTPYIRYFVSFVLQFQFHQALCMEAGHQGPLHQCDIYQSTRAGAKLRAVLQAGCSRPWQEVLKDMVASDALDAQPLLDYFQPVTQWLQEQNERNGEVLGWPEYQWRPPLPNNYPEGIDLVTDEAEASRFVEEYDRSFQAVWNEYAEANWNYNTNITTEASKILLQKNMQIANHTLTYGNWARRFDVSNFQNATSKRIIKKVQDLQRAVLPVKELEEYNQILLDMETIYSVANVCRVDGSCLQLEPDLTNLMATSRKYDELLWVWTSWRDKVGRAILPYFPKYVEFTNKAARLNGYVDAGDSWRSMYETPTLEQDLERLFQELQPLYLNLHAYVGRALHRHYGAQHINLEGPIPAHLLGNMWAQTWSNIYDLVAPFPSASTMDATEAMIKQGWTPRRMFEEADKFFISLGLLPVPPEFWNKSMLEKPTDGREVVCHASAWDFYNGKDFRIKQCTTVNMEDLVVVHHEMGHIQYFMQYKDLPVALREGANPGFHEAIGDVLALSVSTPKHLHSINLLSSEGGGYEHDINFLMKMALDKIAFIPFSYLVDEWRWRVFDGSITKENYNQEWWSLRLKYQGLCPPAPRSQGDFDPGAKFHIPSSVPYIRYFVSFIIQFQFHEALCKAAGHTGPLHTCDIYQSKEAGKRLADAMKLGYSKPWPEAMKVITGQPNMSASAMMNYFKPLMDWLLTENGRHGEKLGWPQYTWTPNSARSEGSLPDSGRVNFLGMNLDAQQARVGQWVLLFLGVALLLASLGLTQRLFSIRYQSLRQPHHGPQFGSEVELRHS
The experiment can be described thus: Determination of angiotensin converting enzyme inhibitory activity (method of Cushmann et al., hippuryl-L-histidine-L-leucine substrate). The experiment is classed as biochemical. The settings on record: rabbit lung enzyme, 37° C., 30 minutes, pH 8.3; peptides isolated from Bacillus stearothermophilus hydrolysate; read-out: IC50 (concentration of the sample showing 50% inhibition) (converted). As to the method: Angiotensin converting enzyme inhibitory activity during isolation and purification was determined using the method of Cushmann et al., Biochem. Pharacol., Vol. 20, pp. 1637-1648 (1971).
A commercially available acetone-dried preparation of rabbit lungs (product of Sigma Co.) was dissolved in a 50 mM potassium phosphate buffer solution (pH=8.3) at 4° C. and the solution was centrifuged at 37,000×g for 30 minutes. The supernatant was dialyzed against the same buffer to remove low-molecular weight substances resulting in an angiotensin converting enzyme solution.
Hippuryl-L-histidine-L-leucine (product of Peptide Kenkyusho) was added to a 0.1M potassium phosphate buffer solution (pH=8.3) containing 0.3M NaCl to prepare a 2.5 mM enzyme substrate solution. The above-prepared angiotensin converting enzyme, water and a test sample were added to the substrate solution in a final volume of 0.25 ml and the system was allowed to react at 37° C. for 30 minutes. Then, 0.25 ml of 1N HCl was added thereto to stop the reaction and 1.5 ml of ethyl acetate was added to extract released hippuric acid. A 1 ml aliquot of the ethyl acetate extract was evaporated to dryness. To the residue was added 1 ml of distilled water and the absorbance at 228 nm was measured to determine the amount of hippuric acid.
Percent inhibition was calculated from the above-measured absorbance (A) and an absorbance of a blank (B) according to the following equation: [formula] The concentration of the sample showing 50% inhibition was taken as IC50.
Consider “GKMVKVVSWY [(b), Gly-Lys-Met-Val-Lys-Val-Val-Ser-Trp-Tyr]”, for which the IC50 was 6.69 µM.

Regarding “GKEIIVKAER [(a), Gly-Lys-Glu-Ile-Ile-Val-Lys-Ala-Glu-Arg]”, the IC50 was 65.7 µM. The figure for “AYIASKGL [(c), Ala-Tyr-Ile-Ala-Ser-Lys-Gly-Leu]” is 35 µM.

Values taken from patent publication US5243027A, “Method of preparing angiotensin converting enzyme inhibitors” (Unitika, Ltd., priority 1990, dated 1993).
